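Protocol summary: plate cells (96-well), add compound at 5 concentrations, incubate 48 h, interpolate endpoints linearly. Here, GI50 denotes the concentration required for 50% inhibition of growth.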 The source made the active and inactive calls. Rule as the data show it: active = GI50 up to about 1.1 µM and inactive = higher.
Key:
Test in all cases: inhibition of tumour cell growth, NCI panel, 48 h
786-0 = test system: 786-0
A498 = test system: A498
A549 = test system: A549
ACHN = test system: ACHN
BT-549 = test system: BT-549
CAKI-1 = test system: CAKI-1
CCRF-CEM = test system: CCRF-CEM
COLO 205 = test system: COLO 205
DLD-1 = test system: DLD-1
DMS-114 = test system: DMS-114
DMS-273 = test system: DMS-273
DU-145 = test system: DU-145
EKVX = test system: EKVX
HCC 2998 = test system: HCC 2998
HCT-116 = test system: HCT-116
HCT-15 = test system: HCT-15
HL-60 = test system: HL-60
HOP-62 = test system: HOP-62
HOP-92 = test system: HOP-92
HT-29 = test system: HT-29
Hs-578T = test system: Hs-578T
IGROV-1 = test system: IGROV-1
K562 = test system: K562
KM-20L2 = test system: KM-20L2
KM12 = test system: KM12
LOX IMVI = test system: LOX IMVI
LXFL 529 = test system: LXFL 529
M14 = test system: M14
M19-MEL = test system: M19-MEL
MCF7 = test system: MCF7
MDA-MB-231 = test system: MDA-MB-231
MDA-MB-435 = test system: MDA-MB-435
MDA-N = test system: MDA-N
MOLT-4 = test system: MOLT-4
Malme-3M = test system: Malme-3M
NCI-H226 = test system: NCI-H226
NCI-H23 = test system: NCI-H23
NCI-H460 = test system: NCI-H460
NCI-H522 = test system: NCI-H522
NCI/ADR-RES = test system: NCI/ADR-RES
OVCAR-3 = test system: OVCAR-3
OVCAR-4 = test system: OVCAR-4
OVCAR-5 = test system: OVCAR-5
OVCAR-8 = test system: OVCAR-8
PC-3 = test system: PC-3
RPMI-8226 = test system: RPMI-8226
RXF 393 = test system: RXF 393
RXF 631 = test system: RXF 631
SF-268 = test system: SF-268
SF-295 = test system: SF-295
SF-539 = test system: SF-539
SK-MEL-28 = test system: SK-MEL-28
SK-MEL-2 = test system: SK-MEL-2
SK-MEL-5 = test system: SK-MEL-5
SK-OV-3 = test system: SK-OV-3
SN12C = test system: SN12C
SNB-19 = test system: SNB-19
SNB-75 = test system: SNB-75
SNB-78 = test system: SNB-78
SR = test system: SR
SW-620 = test system: SW-620
T47D = test system: T47D
TK-10 = test system: TK-10
U-251 = test system: U-251
UACC-257 = test system: UACC-257
UACC-62 = test system: UACC-62
UO-31 = test system: UO-31
XF498 = test system: XF498
HOP-18 = test system: HOP-18

Measured: GI50

Clc1ccc2c(NCCCCCCNc3ccnc4cc(Cl)ccc34)ccnc2c1
2.88 µM: HCT-15
inactive: 786-0 1.97 µM | A498 11.2 µM | A549 4.69 µM | ACHN 3.67 µM | BT-549 11.6 µM | CAKI-1 9.04 µM | CCRF-CEM 2.34 µM | COLO 205 1.82 µM | DLD-1 3.03 µM | DMS-114 1.8 µM | DMS-273 2.98 µM | DU-145 6.19 µM | EKVX 6.97 µM | HCC 2998 1.67 µM | HCT-116 1.8 µM | HL-60 1.98 µM | HOP-62 4.72 µM | HOP-92 2 µM | HT-29 1.99 µM | Hs-578T 3.27 µM | IGROV-1 4.8 µM | K562 1.72 µM | KM-20L2 1.99 µM | KM12 2.66 µM | LOX IMVI 1.74 µM | LXFL 529 2.33 µM | M14 1.88 µM | M19-MEL 3.13 µM | MCF7 2.51 µM | MDA-MB-231 2.22 µM | MDA-MB-435 6.04 µM | MDA-N 2.46 µM | MOLT-4 2.45 µM | Malme-3M 12.8 µM | NCI-H226 10.4 µM | NCI-H23 12.3 µM | NCI-H460 2.25 µM | NCI-H522 1.69 µM | NCI/ADR-RES 4.56 µM | OVCAR-3 1.84 µM | OVCAR-4 2.54 µM | OVCAR-5 7.05 µM | OVCAR-8 2.05 µM | PC-3 3.65 µM | RPMI-8226 2.13 µM | RXF 393 3.01 µM | RXF 631 2.44 µM | SF-268 5.35 µM | SF-295 2.11 µM | SF-539 1.87 µM | SK-MEL-28 4.62 µM | SK-MEL-2 5.97 µM | SK-MEL-5 3.34 µM | SK-OV-3 5.22 µM | SN12C 2.74 µM | SNB-19 3.8 µM | SNB-75 2.73 µM | SNB-78 1.86 µM | SR 1.59 µM | SW-620 1.63 µM | T47D 2.08 µM | TK-10 6.78 µM | U-251 2.45 µM | UACC-257 7.57 µM | UACC-62 3.86 µM | UO-31 4.83 µM | XF498 1.57 µM

COc1ccc([Se][Se]c2ccc(OC)cc2OC)c(OC)c1
1.84 µM: HCT-15
inactive: 786-0 2.81 µM | A498 18.2 µM | A549 8.89 µM | ACHN 2.86 µM | CAKI-1 3.54 µM | CCRF-CEM 2.08 µM | COLO 205 6.79 µM | DLD-1 3.3 µM | DMS-114 2.01 µM | DMS-273 5.12 µM | HCC 2998 6.07 µM | HCT-116 2.75 µM | HL-60 2.43 µM | HOP-18 1.97 µM | HOP-62 > 10 µM | HOP-92 2.35 µM | HT-29 3.14 µM | IGROV-1 3.25 µM | K562 2.88 µM | KM12 3.52 µM | LOX IMVI 2 µM | LXFL 529 2.1 µM | M14 2.92 µM | M19-MEL 2.03 µM | MOLT-4 3.07 µM | Malme-3M 4.54 µM | NCI-H226 2.9 µM | NCI-H23 2.92 µM | NCI-H460 4.29 µM | NCI-H522 1.86 µM | OVCAR-3 3.52 µM | OVCAR-4 2.1 µM | OVCAR-8 4.75 µM | RPMI-8226 2.48 µM | RXF 393 2.13 µM | RXF 631 6.31 µM | SF-268 2.19 µM | SF-295 2.1 µM | SF-539 1.75 µM | SK-MEL-28 2.16 µM | SK-MEL-2 4.08 µM | SK-MEL-5 7.85 µM | SK-OV-3 32.4 µM | SN12C 2 µM | SNB-19 3.64 µM | SNB-75 1.59 µM | SNB-78 2.66 µM | SW-620 2.59 µM | TK-10 4.06 µM | UACC-257 2.45 µM | UACC-62 1.93 µM | UO-31 2.4 µM | XF498 1.94 µM

CCc1nc(N)nc(C(=O)NCCNC(=O)c2nc(N)nc(CC)c2C)c1C
inactive: 786-0 > 100 µM | A498 > 100 µM | A549 > 100 µM | ACHN > 100 µM | CAKI-1 > 100 µM | DLD-1 > 100 µM | DMS-114 > 100 µM | DMS-273 > 100 µM | EKVX > 100 µM | HCC 2998 > 100 µM | HCT-116 > 100 µM | HL-60 > 100 µM | HOP-18 > 100 µM | HOP-62 > 100 µM | HOP-92 > 100 µM | HT-29 > 100 µM | IGROV-1 > 100 µM | K562 > 100 µM | KM-20L2 > 100 µM | KM12 > 100 µM | LOX IMVI > 100 µM | LXFL 529 > 100 µM | M14 > 100 µM | M19-MEL > 100 µM | MOLT-4 > 100 µM | Malme-3M > 100 µM | NCI-H226 > 100 µM | NCI-H23 > 100 µM | NCI-H460 > 100 µM | OVCAR-3 > 100 µM | OVCAR-4 > 100 µM | OVCAR-5 > 100 µM | OVCAR-8 > 100 µM | RPMI-8226 > 100 µM | RXF 393 > 100 µM | RXF 631 > 100 µM | SF-268 > 100 µM | SF-295 > 100 µM | SF-539 > 100 µM | SK-MEL-28 > 100 µM | SK-MEL-2 > 100 µM | SK-MEL-5 > 100 µM | SN12C > 100 µM | SNB-19 > 100 µM | SNB-75 > 100 µM | SNB-78 > 100 µM | SW-620 > 100 µM | TK-10 > 100 µM | U-251 > 100 µM | UACC-257 > 100 µM | UACC-62 > 100 µM | UO-31 > 100 µM | XF498 > 100 µM
> 100 µM: HCT-15

— ChEMBL document CHEMBL1201862, “PubChem BioAssay data set” (2004)
